Read-outs that look alike come from different tables or passages of the source. Marks after values point to notes of the source that are not given here.
Molecular target: T1, F508delCFTR (Homo sapiens, UniProt P13569, DEL508-508)
T1 construct: expressed in transfected cells; host or cells: CFBE41o- human lung derived epithelial cells (CFBE41o-F508delCFTR-HRP), doxycycline-inducible
Test: Cell Surface Expression-Horse Radish Peroxidase (CSE-HRP) Assay;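 as to EC50 (with co-corrector): co-corrector chromenyl benzoic acid corrector at 2 or 3 µM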;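 as to Maximum % activity (without co-corrector): % of on-plate positive control chromenyl benzoic acid corrector at 2 or 3 µM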
Type: cell-based
Details: for Emax: read-out: Maximum % activity (without co-corrector)
Procedure, shortened: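 Corrector compounds were given as 8-point 3-fold series from 20 or 30 μM, with or without a 2 μM co-corrector, for 18-24 h at 33 °C. Surface HRP was read by luminol luminescence as % of positive control; variable-Hill-slope sigmoidal fitting gave EC50 from triplicate plates.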

[1] = test compound alone, without co-corrector, read-out: EC50 (without co-corrector)
[2] = with co-corrector, maximum at any tested concentration
[3] = with co-corrector, read-out: EC50 (with co-corrector)
[4] = without co-corrector, maximum at any tested concentration
[5] = test compound with co-corrector, maximum at any tested concentration
[6] = test compound with co-corrector, read-out: EC50 (with co-corrector)
[7] = test compound without co-corrector, maximum at any tested concentration
[8] = test compound without co-corrector, read-out: EC50 (without co-corrector)
[9] = test compound without co-corrector
[10] = test compound with co-corrector

T1 sequence (P13569 with tags, fused parts or gaps DEL508-508): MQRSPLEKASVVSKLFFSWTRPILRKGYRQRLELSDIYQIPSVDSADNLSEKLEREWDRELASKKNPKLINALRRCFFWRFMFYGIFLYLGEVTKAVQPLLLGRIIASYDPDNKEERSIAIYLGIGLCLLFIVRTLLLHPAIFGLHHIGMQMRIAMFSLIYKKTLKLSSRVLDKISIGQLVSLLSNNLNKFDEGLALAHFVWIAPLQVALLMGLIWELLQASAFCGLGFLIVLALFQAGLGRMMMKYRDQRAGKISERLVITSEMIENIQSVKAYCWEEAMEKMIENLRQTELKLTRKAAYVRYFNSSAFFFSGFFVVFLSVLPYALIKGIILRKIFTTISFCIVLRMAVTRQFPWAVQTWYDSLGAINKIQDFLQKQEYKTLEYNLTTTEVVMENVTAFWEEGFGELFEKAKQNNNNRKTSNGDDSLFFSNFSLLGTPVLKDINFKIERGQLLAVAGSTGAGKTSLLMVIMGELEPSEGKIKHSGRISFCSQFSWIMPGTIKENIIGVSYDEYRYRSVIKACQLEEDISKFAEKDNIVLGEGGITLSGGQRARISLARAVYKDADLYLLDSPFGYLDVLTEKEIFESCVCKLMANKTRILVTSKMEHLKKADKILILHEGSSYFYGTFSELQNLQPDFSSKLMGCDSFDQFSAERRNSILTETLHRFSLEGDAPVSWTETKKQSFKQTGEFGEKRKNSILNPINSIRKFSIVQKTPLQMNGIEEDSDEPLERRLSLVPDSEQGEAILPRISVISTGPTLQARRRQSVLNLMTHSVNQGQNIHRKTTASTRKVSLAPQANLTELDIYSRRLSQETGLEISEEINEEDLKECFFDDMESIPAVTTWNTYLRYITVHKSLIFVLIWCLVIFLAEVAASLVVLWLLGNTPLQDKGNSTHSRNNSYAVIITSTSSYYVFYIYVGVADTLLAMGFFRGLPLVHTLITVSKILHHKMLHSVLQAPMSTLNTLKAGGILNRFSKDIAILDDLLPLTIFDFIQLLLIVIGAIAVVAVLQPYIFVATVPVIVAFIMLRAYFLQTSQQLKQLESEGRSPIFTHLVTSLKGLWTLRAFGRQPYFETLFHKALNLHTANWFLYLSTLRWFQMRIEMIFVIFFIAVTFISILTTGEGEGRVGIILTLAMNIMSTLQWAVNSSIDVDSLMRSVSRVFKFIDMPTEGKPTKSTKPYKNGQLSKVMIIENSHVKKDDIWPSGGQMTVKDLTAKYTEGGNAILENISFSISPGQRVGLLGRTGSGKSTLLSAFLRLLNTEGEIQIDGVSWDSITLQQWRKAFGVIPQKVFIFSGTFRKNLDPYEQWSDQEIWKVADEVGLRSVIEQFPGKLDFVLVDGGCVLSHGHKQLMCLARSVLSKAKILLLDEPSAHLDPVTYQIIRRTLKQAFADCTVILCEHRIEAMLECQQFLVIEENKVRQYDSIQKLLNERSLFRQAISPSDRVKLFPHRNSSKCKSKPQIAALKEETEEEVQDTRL

| EC50 [1] [µM] | Maximum % activity (with co-corrector) [2] | EC50 [3] [µM] | Emax [4] [%] | Maximum % activity (with co-corrector) [5] | EC50 [6] [µM] | Emax [7] [%] | EC50 [8] [µM] | EC50 (without co-corrector) [9] | EC50 (with co-corrector) [10] | Maximum % activity (without co-corrector) [7] | Compound |
| --- | --- | --- | --- | --- | --- | --- | --- | --- | --- | --- | --- |
| > 10 | + (<150) | > 10 | < 50 | – | – | – | – | – | – | – | O=C(NS(=O)(=O)CC(F)(F)F)C1(c2ccc(Cl)cc2Cl)CC1 [Example III-106, 1-(2,4-dichlorophenyl)-N-(2,2,2-trifluoroethanesulfonyl)cyclopropane-1-carboxamide] |
| > 10 | ++ (≥150 and <350) | 3 to 10 | < 50 | – | – | – | – | – | – | – | Cc1ccc(C2(C(=O)NS(=O)(=O)Cc3ccccc3)CC2)cc1 [Example III-111, 1-(4-methylphenyl)-N-(phenylmethanesulfonyl)cyclopropane-1-carboxamide] |
| 3 to 10 | +++ (≥350) | < 3 | > 150 | – | – | – | – | – | – | – | COc1c(C)cccc1C1(C(=O)NS(=O)(=O)c2cccc3ncccc23)CC1 [II-64] |
| < 3 | +++ (≥350) | < 3 | > 150 | – | – | – | – | – | – | – | CCOCC(C)(C)c1ccc(OC)c(C2(C(=O)NS(=O)(=O)c3cccc4ncccc34)CC2)c1 [II-110] |
| < 3 | +++ (≥350) | < 3 | > 150 | – | – | – | – | – | – | – | COc1ccc(C2CC2)c(C)c1C1(C(=O)NS(=O)(=O)c2cccc3nc(C)ccc23)CC1 [II-52] |
| > 10 | + (<150) | > 10 | < 50 | – | – | – | – | – | – | – | Cc1ccc(S(=O)(=O)NC(=O)C2(c3cccc(Cl)c3)CC2)nc1 [Example III-84, 1-(3-chlorophenyl)-N-(5-methylpyridine-2-sulfonyl)cyclopropane-1-carboxamide] |
| – | – | – | – | ++ (≥150 and <350) | 3 to 10 | 50 to 150 | – | ++^a | – | – | CCc1ncc(OC(C)C)cc1C1(C(=O)NS(=O)(=O)c2cccc3ncccc23)CC1 [GII-16, 1-{2-ethyl-5-[(propan-2-yl)oxy]pyridin-3-yl}-N-(quinoline-5-sulfonyl)cyclopropane-1-carboxamide] |
| – | – | – | – | + (<150) | > 10 | < 50 | > 10 | – | – | – | Cc1ccc2c(S(=O)(=O)NC(=O)C3(c4cc(C5CCC5)cnc4N4CCN(C)CC4)CC3)cccc2n1 [GIII-32] |
| 3 to 10 | ++ (≥150 and <350) | 3 to 10 | < 50 | – | – | – | – | – | – | – | Cc1ccccc1S(=O)(=O)NC(=O)C1(c2ccc3c(c2)OCO3)CC1 [Example III-86, 1-(2H-1,3-benzodioxol-5-yl)-N-(2-methylbenzene-1-sulfonyl)cyclopropane-1-carboxamide] |
| > 10 | + (<150) | > 10 | < 50 | – | – | – | – | – | – | – | COC(=O)c1csc(S(=O)(=O)NC(=O)C2(c3ccc(Cl)cc3Cl)CC2)c1OC [Example III-11, methyl 5-{[1-(2,4-dichlorophenyl)cyclopropane-1-carbonyl]sulfamoyl}-4-methoxythiophene-3-carboxylate] |
| – | – | – | – | ++ (≥150 and <350) | – | < 50 | > 10 | – | ++^a | – | Cc1cnc(N2CCOCC2)cc1C1(C(=O)NS(=O)(=O)c2cccc3ncccc23)CC1 [GII-8, 1-[5-methyl-2-(morpholin-4-yl)pyridin-4-yl]-N-(quinoline-5-sulfonyl)cyclopropane-1-carboxamide] |
| < 3 | +++ (≥350) | < 3 | > 150 | – | – | – | – | – | – | – | Cc1ccc(C)c(C2(C(=O)NS(=O)(=O)c3cccc4ncccc34)CC2)c1 [II-61] |
| 3 to 10 | +++ (≥350) | < 3 | > 150 | – | – | – | – | – | – | – | COc1ncc(C(F)(F)F)cc1C1(C(=O)NS(=O)(=O)c2cccc3c2CCCN3)CC1 [II-8] |
| 3 to 10 | +++ (≥350) | 3 to 10 | > 150 | – | – | – | – | – | – | – | CCOC(C)(C)c1ccc(OC(F)F)c(C2(C(=O)NS(=O)(=O)c3cccc4ncccc34)CC2)c1 [II-106] |
| > 10 | + (<150) | > 10 | < 50 | – | – | – | – | – | – | – | COc1cccc(C2(C(=O)NS(=O)(=O)c3ccccc3C)CCOCC2)c1 [Example III-81, 4-(3-methoxyphenyl)-N-(2-methylbenzene-1-sulfonyl)oxane-4-carboxamide] |
| < 3 | +++ (≥350) | < 3 | > 150 | – | – | – | – | – | – | – | COc1ccc(C(C)C)cc1C1(C(=O)NS(=O)(=O)c2cccc3c2CCCN3)CC1 [II-26] |
| – | – | – | – | + (<150) | > 10 | < 50 | > 10 | – | – | – | O=C(NS(=O)(=O)c1cccc2ncccc12)C1(c2cc(Cl)cnc2C(F)(F)F)CC1 [GIII-2] |
| – | – | – | – | ++ (≥150 and <350) | – | 50 to 150 | – | ++^a | ++^a | – | Cc1ccc2c(S(=O)(=O)NC(=O)C3(c4cc(C5CC5)cnc4N4CCOCC4)CC3)cccc2n1 [GIII-20] |
| – | – | – | – | +++ (≥350) | 3 to 10 | > 150 | 3 to 10 | – | – | – | COc1cc(OC(C)C)c(C2(C(=O)NS(=O)(=O)c3cccc4[nH]ccc34)CC2)cn1 [GIII-3] |
| – | – | – | – | +++ (≥350) | > 10 | > 150 | 3 to 10 | – | – | – | CCc1cnc(N(C)C)c(C2(C(=O)NS(=O)(=O)c3cccc4ncccc34)CC2)c1 [GII-47, 1-[2-(dimethylamino)-5-ethylpyridin-3-yl]-N-(quinoline-5-sulfonyl)cyclopropane-1-carboxamide] |

The next lines start with the compound.

| Compound | EC50 [1] [µM] | Maximum % activity (with co-corrector) [2] | EC50 [3] [µM] | Emax [4] [%] | Maximum % activity (with co-corrector) [5] | EC50 [6] [µM] | Emax [7] [%] | EC50 [8] [µM] | EC50 (without co-corrector) [9] | EC50 (with co-corrector) [10] | Maximum % activity (without co-corrector) [7] |
| --- | --- | --- | --- | --- | --- | --- | --- | --- | --- | --- | --- |
| O=C(NS(=O)(=O)c1cccc2c1CCCN2)C1(c2ccc(C(F)(F)F)nc2C2CC2)CC1 [Example GI-6, 1-[2-cyclopropyl-6-(trifluoromethyl)pyridin-3-yl]-N-(1,2,3,4-tetrahydroquinoline-5-sulfonyl)cyclopropane-1-carboxamide] | 3 to 10 | +++ (≥350) | < 3 | > 150 | – | – | – | – | – | – | – |
| Cc1ccc(OC(C)C)c(C2(C(=O)NS(=O)(=O)c3cccc4nc(N)ccc34)CC2)c1 [Example I-87, N-(2-aminoquinoline-5-sulfonyl)-1-{5-methyl-2-[(propan-2-yl)oxy]phenyl}cyclopropane-1-carboxamide] | < 3 | +++ (≥350) | < 3 | > 150 | – | – | – | – | – | – | – |
| CCc1cnc(N2CCCC2)c(C2(C(=O)NS(=O)(=O)c3cccc4[nH]ccc34)CC2)c1 [Example GI-37, 1-[5-ethyl-2-(pyrrolidin-1-yl)pyridin-3-yl]-N-(1H-indole-4-sulfonyl)cyclopropane-1-carboxamide] | – | – | – | – | +++ (≥350) | < 3 | > 150 | 3 to 10 | – | – | – |
| Cc1ccc2c(S(=O)(=O)NC(=O)C3(c4cc(OC(C)C)cnc4OC(C)C)CC3)cccc2n1 [Example GI-67, 1-{2,5-bis[(propan-2-yl)oxy]pyridin-3-yl}-N-(2-methylquinoline-5-sulfonyl)cyclopropane-1-carboxamide] | – | – | – | – | +++ (≥350) | < 3 | > 150 | 3 to 10 | – | – | – |
| 1-[5-(cyclopropylmethoxy)-2-methoxypyridin-4-yl]-N-(2-methylquinoline-5-sulfonyl)cyclopropane-1-carboxamide [Example GI-93] | – | – | – | – | +++ (≥350) | < 3 | – | < 3 | – | – | +++ (≥150) |
| COc1ccc(C23CC(C2)C3)cc1C1(C(=O)NS(=O)(=O)c2cccc3ncccc23)CC1 [Example I-38, 1-[5-(bicyclo[1.1.1]pentan-1-yl)-2-methoxyphenyl]-N-(quinoline-5-sulfonyl)cyclopropane-1-carboxamide] | < 3 | +++ (≥350) | < 3 | > 150 | – | – | – | – | – | – | – |
| CC(C)Oc1ccc(C2CCC2)nc1C1(C(=O)NS(=O)(=O)c2cccc3[nH]ccc23)CC1 [Example GI-38, 1-{6-cyclobutyl-3-[(propan-2-yl)oxy]pyridin-2-yl}-N-(1H-indole-4-sulfonyl)cyclopropane-1-carboxamide] | – | – | – | – | +++ (≥350) | < 3 | > 150 | < 3 | – | – | – |
| CCc1ccc(OC(C)C)c(C2(C(=O)NS(=O)(=O)c3cccc4ncccc34)CC2)n1 [Example GI-55, 1-{6-ethyl-3-[(propan-2-yl)oxy]pyridin-2-yl}-N-(quinoline-5-sulfonyl)cyclopropane-1-carboxamide] | – | – | – | – | +++ (≥350) | < 3 | > 150 | 3 to 10 | – | – | – |
| CCc1cnc(OC(C)C)c(C2(C(=O)NS(=O)(=O)c3cccc4c3CCCN4)CC2)c1 [Example GI-14, 1-{5-ethyl-2-[(propan-2-yl)oxy]pyridin-3-yl}-N-(1,2,3,4-tetrahydroquinoline-5-sulfonyl)cyclopropane-1-carboxamide] | 3 to 10 | +++ (≥350) | < 3 | > 150 | – | – | – | – | – | – | – |
| CCc1cnc(OCC2CC2)c(C2(C(=O)NS(=O)(=O)c3cccc4ncccc34)CC2)c1 [Example GI-106, 1-[2-(cyclopropylmethoxy)-5-ethylpyridin-3-yl]-N-(quinoline-5-sulfonyl)cyclopropane-1-carboxamide] | – | – | – | – | +++ (≥350) | < 3 | > 150 | < 3 | – | – | – |
